For test [1], the target named is aminoacyl-tRNA synthetases (aaRS). The test can be described thus: aaRS charging and trichloroacetic acid precipitation assay (IC50), Ef enzyme. The test is classed as biochemical. The settings on record: aaRS from Ef; 20 min preincubation at 25 C. How it is done: (§1) IC50 determinations for the aminoacyl-tRNA synthetases (aaRS) isolated from pathogen or HeLa cells were carried out using a modification of the aaRS charging and trichloroacetic acid precipitation assay described previously (see examples: D. Kern et. al., Biochemie, 61, 1257-1272 (1979) and J. Gilbart et. al. Antimicrobial Agents and Chemotherapy, 37(1), 32-38 (1993)). The aaRS enzymes were prepared via standard cloning and expression methods and partially purified or partially purified from pathogen and HeLa cell extracts. The activity of each aaRS enzyme was standardized as trichloroacetic acid precipitable counts (cpm) obtained at 10 minutes reaction time at Km concentrations of substrates. For practical purposes, the minimal acceptable value is approximately 2000 cpm per 10 minute reaction.
(§2) Preincubations for IC50 determinations were initiated by incubating partially purified aaRS extracts in 50 mM HEPES (pH 7.5), 0.1 mM EDTA, 0.05 mg/ml bovine serum albumin, 10 mM dithiothreitol and 2.5% dimethyl sulfoxide with and without test compound (e.g. compound of the invention (preferably a compound of Formula I)) in a final volume of 20 microliters in a microtiter plate for 20 minutes at 25 C. Test compounds were typically present as serial dilutions in concentration ranges of 0.35 nM to 35 μM. Test compound solutions were prepared by dissolving test compound in 100% dimethyl sulfoxide and diluting to the final concentration with 50 mM HEPES, pH 7.5. IC50 determinations were typically performed in duplicate with each experiment containing 4-8 concentrations of inhibitor along with two no inhibitor controls.
(§3) IC50 incubations were initiated by supplementing the preincubation mixture to a final assay concentration of 10 mM MgCl2, 30 mM KCl, 10 mM KF, 50 mM HEPES (pH 7.5), 20 μM-500 mM ATP, 2-20 μM [^3H] amino acid, and 90-180 μM crude tRNA in a final volume of 35 microliters. The reaction was incubated at 25° C. for 5-20 minutes. At specified time points a 15 microliter aliquot was removed and added to a well of a Millipore filtration plate (Multiscreen-FB, MAFB NOB 10) containing 100 microliters of cold 5% (wt/vol) trichloroacetic acid. Trichloroacetic acid precipitable material was collected by filtration on Millipore Multiscreen filtration station, washed twice with cold 5% trichloroacetic acid, twice with water, and dried. Plates were typically allowed to air dry for several hours or they were baked at 50° C. in a vacuum oven for 30 minutes. The radioactivity on the dried plates was quantitated by the addition of Packard Microscint-20 to the wells and counting with a Packard TopCount scintillation counter.
(§4) Inhibitor activity was typically reported as a percentage of the control aaRS activity. The IC50 value was determined by plotting per cent activity versus compound concentration in the assay and identifying the concentration at which 50% of the activity was remaining.

Test [2] concerns Efm. Briefly: Whole cell antimicrobial screen (MIC), Efm. The test is classed as cell-based. The settings on record: overnight incubation, 2-fold dilutions, read-out: MIC (μg/mL) Efm. As to the method: (§5) Compounds were tested for antimicrobial activity against a panel of organisms according to standard procedures described by the National Committee for Clinical Laboratory Standards (NCCLS document M7-A3, Vol. 13, No. 25, 1993/NCCLS document M27-P, Vol. 12, No. 25, 1992). Compounds were dissolved in 100% DMSO and were diluted to the final reaction concentration (0.1 μg/ml-500 μg/ml) in microbial growth media. In all cases the final concentration of DMSO incubated with cells is less than or equal to 1%. For minimum inhibitory concentration (MIC) calculations, 2-fold dilutions of compounds were added to wells of a microtiter plate containing 1×10^5 bacteria or fungal cells in a final volume of 200 lambda of an appropriate media (Mueller-Hinton Broth; Haemophilus Test Media; Mueller-Hinton Broth+5% Sheep Blood; or […]). Plates were incubated overnight at an appropriate temperature (30° C.-37° C.) and optical densities (measure of cell growth) were measured using a commercial plate reader. The MIC value is defined as the lowest compound concentration inhibiting growth of the test organism.

Test [3] concerns Sa. Briefly: Whole cell antimicrobial screen (MIC), Sa. The test is classed as cell-based. The settings on record: overnight incubation, 2-fold dilutions, read-out: MIC (μg/mL) Sa. How it is done: as §5
Test [4] relates to Efs. Briefly: Whole cell antimicrobial screen (MIC), Efs. The test is classed as cell-based. The settings on record: overnight incubation, 2-fold dilutions, read-out: MIC (μg/mL) Efs. How it is done: as §5
The target of test [5] is aminoacyl-tRNA synthetases (aaRS). Briefly: aaRS charging and trichloroacetic acid precipitation assay (IC50), Sa enzyme. The test is classed as biochemical. Particulars: aaRS from Sa; 20 min preincubation at 25 C. How it is done:
as §1, §2, §3, §4

≈ marks a conversion by molar mass, not a printed value.

Usually IC50 stands for the point on the concentration scale where inhibition reaches its midpoint. A low value points to greater potency in that assay.

As for `Clc1ccc(COc2ccccc2OCc2nc3ccccc3[nH]2)c(Cl)c1` [126,419], the IC50 in test [1] and in test [5] was below 500 nM throughout. The MIC in test [2], in test [3] and in test [4] was above 100 µg/mL throughout.
Regarding `O=C(NC(CO)C(=O)O)c1ccc(OCc2ccc(Cl)cc2Cl)c(OCc2nc3ccccc3[nH]2)c1` (stereo not shown) [130,968], the IC50 in test [1] and in test [5] was below 500 nM each time. Besides, the MIC in test [2], in test [3] and in test [4] was above 100 µg/mL in each case.
As for `O=C(NC(CO)C(=O)O)c1ccc(OCc2nc3ccccc3[nH]2)c(OCc2ccc(Cl)cc2Cl)c1` (stereo not shown) [130,970], the IC50 in test [1] and in test [5] was below 500 nM each time. The results for the MIC in test [2], in test [3] and in test [4] were 100 µg/mL (≈ 189 µM), above 100 µg/mL and below 100 µg/mL, respectively.
Regarding `CS(=O)(=O)NC(=O)c1ccc(OCc2nc3ccccc3[nH]2)c(OCc2ccc(Cl)cc2Cl)c1` [130,971], the IC50 in test [1] and in test [5] was below 500 nM in each case. The MIC was 100 µg/mL (≈ 192 µM) in test [2], below 100 µg/mL in test [3] and 100 µg/mL (≈ 192 µM) in test [4].
Take `O=C(O)Cc1ccc(OCc2nc3ccccc3[nH]2)c(OCc2ccc(Cl)cc2Cl)c1` [130,976]: the IC50 in test [1] and in test [5] was below 500 nM each time. The MIC in test [2], in test [3] and in test [4] was below 10 µg/mL throughout.

For the origin of these results see patent US6348482B1, “Catechols as antimicrobial agents” (Merck & Co., Inc., priority 1999, dated 2002).
